Experimental data published in patent publication US8143217B2, “Use of DPP-IV inhibitor to reduce hypoglycemic events” (Novartis AG, priority 2005, dated 2012).

Tested on: patients with type 2 diabetes treated with insulin
Assay: Clinical study: 24 weeks LAF237 50 mg bid vs placebo as add-on to insulin, hypoglycemic episodes
Type: in vivo, human
Settings: for Number of severe hypoglycemic episodes (Panel C): severe = requiring assistance of another party; for Number of severe hypoglycemic events compared with placebo group: P=0.032, chi-square test of two Poisson rates
Description: A multicenter, double-blind, randomized, parallel-group study to compare the effect of 24 weeks treatment with LAF237 50 mg bid to placebo as add-on therapy in patients with type 2 diabetes treated with insulin.
In addition to treatment with insulin, patients are assigned to double-blind treatment of LAF237 50 mg bid or placebo in a ratio of 1:1.
This is a multicenter, randomized, double-blind, placebo-controlled study. Patients with type 2 diabetes (HbA1c 7.5-11%) who have been treated for at least 3 months with insulin is eligible for participation in the trial. Eligible patients are randomized equally to LAF237 50 mg bid or placebo in addition to continuing their insulin therapy. The insulin dose can be adjusted downward as clinically indicated but upward adjustments should not exceed 25% of the baseline insulin dose.
Each patient attends one screening visit (Week-4) where the inclusion/exclusion criteria is assessed. Eligible patients are then be randomized at Visit 2 (Baseline, Day 1) and complete 5 further visits over a period of 24 weeks of treatment with LAF237 or placebo added to insulin.
Patients were instructed to perform self-monitored blood glucose measurements (SMBG) any time hypoglycemia was suspected and prior to breakfast at least 3 times per week. […] Severe hypoglycemia was defined as any episode requiring the assistance of another party (with low plasma glucose value<3.1 mmol/L unless the severity of the event precluded glucose determination).

[1] = 24-week treatment, vildagliptin 50 mg bid added to insulin (n = 144)

N#C[C@@H]1CCCN1C(=O)CNC12CC3CC(CC(O)(C3)C1)C2 [vildagliptin, (S)-1-[(3-hydroxy-1-adamantyl)amino]acetyl-2-cyano-pyrrolidine]
Total number of hypoglycemic episodes reported (Panel B) [1]: 113 episodes | Number of patients reporting any hypoglycemic episode (Panel A) (24-week treatment, vildagliptin 50 mg bid added to insulin (n = 144), hypoglycemia = symptoms confirmed by SMBG<3.1 mmol/L): 33 patients | Number of severe hypoglycemic episodes (Panel C) [1]: none | Number of severe hypoglycemic episodes (Panel C) (24-week treatment, vildagliptin 50 mg bid added to insulin (n = 144), listed as LAF237): did not show any severe hypoglycaemic episodes | Number of severe hypoglycemic episodes (Panel C) (24-week treatment, vildagliptin 50 mg bid added to insulin (n = 144), listed as Vildagliptin + Insulin): 0 episodes | Effect against insulin-induced hypoglycemia (added to insulin in type 2 diabetes patients): protective effect | Number of hypoglycemic events compared with placebo group (vildagliptin 50 mg bid vs placebo, both added to insulin, 24 weeks, P<0.001, chi-square test of two Poisson rates): statistically significantly lower | Number of severe hypoglycemic events compared with placebo group (vildagliptin 50 mg bid vs placebo, both added to insulin, 24 weeks): statistically significantly lower | Number of severe hypoglycemic events compared with placebo group (vildagliptin 50 mg bid vs placebo, both added to insulin, 24 weeks, listed as LAF237): fewer severe hypoglycaemic episodes
